Patent US20080261936A1, “METHODS OF REDUCING THE BODY WEIGHT OF A SUBJECT BY ADMINISTERING A FATTY ACID ESTER OF AN ESTROGEN OR ESTROGEN DERIVATIVE IN AN OIL AND COMPOSITIONS CONTAINING THE SAME” (Manhattan Pharmaceuticals, Inc., priority 2006, published 2008)
Several values for one entry are separate records, joined by “and”; a condition that tells them apart may be missing. Equal entries are not always repeated.

Assay: Compatibility/stability of oleoyl-estrone in oil systems (appearance/color, potency, related substances)
Format: physicochemical
Description: The compatibility of oleoyl-estrone in various oil systems was also assessed. The respective stability of oleoyl-estrone in various oils was assessed following storage at (A) 25° C./60% and relative humidity (RH), (B) 40° C./75% RH, (C) 50° C. and (D) 60° C. in canola oil, safflower oil, Captex and a 2:1 Captex: Labrafil mixture. The stability test methods include appearance/color, potency, and related substances (e.g. impurities or degradant in the oleoyl-estrone and oil mixture).

[1] = in CANOLA, Three Weeks 25° C./60% RH
[2] = in CANOLA, Three Weeks 40° C./75% RH
[3] = in CANOLA, Two Weeks 25° C./60% RH
[4] = in CANOLA, Two Weeks 40° C./75% RH
[5] = in CAPTEX, One Week 25° C./60% RH
[6] = in CAPTEX, One Week 40° C./75% RH
[7] = in CAPTEX, Three Weeks 25° C./60% RH
[8] = in CAPTEX, Three Weeks 40° C./75% RH
[9] = in CAPTEX, Two Weeks 25° C./60% RH
[10] = in CAPTEX, Two Weeks 40° C./75% RH
[11] = in SAFFLOWER, One Week 25° C./60% RH
[12] = in SAFFLOWER, One Week 40° C./75% RH
[13] = in SAFFLOWER, Three Weeks 25° C./60% RH
[14] = in SAFFLOWER, Three Weeks 40° C./75% RH
[15] = in SAFFLOWER, Three Weeks 50° C.
[16] = in SAFFLOWER, Three Weeks 60° C.
[17] = in SAFFLOWER, Two Weeks 25° C./60% RH
[18] = in SAFFLOWER, Two Weeks 40° C./75% RH
[19] = in the mixture of Captex and Labrafil stored at 50° C. and 60° C., three weeks

CCCCCCCC/C=C\CCCCCCCC(=O)Oc1ccc2c(c1)CC[C@@H]1[C@@H]2CC[C@]2(C)C(=O)CC[C@@H]12 [oleoyl-estrone, [3(Z)]-3-[(1-oxo-9-octadecenyl)oxy]-estra-1,3,5(10)-trien-17-one]
Purity Assay (in CANOLA, One Week 60° C.): 97.8% and 98.5%
Mean Purity Assay [1]: 96.5%
Purity Assay [1]: 95.3% and 97.7%
Mean Purity Assay [2]: 98.4%
Purity Assay [2]: 94.6% and 102.2%
Mean Purity Assay (in CANOLA, Three Weeks 50° C.): 99.4%
Purity Assay (in CANOLA, Three Weeks 50° C.): 100.2% and 98.5%
Mean Purity Assay (in CANOLA, Three Weeks 60° C.): 99.8%
Purity Assay (in CANOLA, Three Weeks 60° C.): 100.4% and 99.1%
Mean Purity Assay (in CANOLA, Time Zero): 98.1%
Purity Assay (in CANOLA, Time Zero): 97.5% and 98.0% and 97.8% and 98.9%
Mean Purity Assay [3]: 96.4%
Purity Assay [3]: 92.5% and 100.3%
Mean Purity Assay [4]: 99.0%
Purity Assay [4]: 98.2% and 99.8%
Mean Purity Assay (in CANOLA, Two Weeks 50° C.): 98.2%
Purity Assay (in CANOLA, Two Weeks 50° C.): 100.2% and 96.2%
Mean Purity Assay (in CANOLA, Two Weeks 60° C.): 97.3%
Purity Assay (in CANOLA, Two Weeks 60° C.): 96.7% and 97.9%
Mean Purity Assay [5]: 105.2%
Purity Assay [5]: 102.0% and 108.3%
Mean Purity Assay [6]: 103.6%
Purity Assay [6]: 105.2% and 101.9%
Mean Purity Assay (in CAPTEX, One Week 50° C.): 101.2%
Purity Assay (in CAPTEX, One Week 50° C.): 99.5% and 102.9%
Mean Purity Assay (in CAPTEX, One Week 60° C.): 101.9%
Purity Assay (in CAPTEX, One Week 60° C.): 101.5% and 102.3%
Mean Purity Assay [7]: 99.5%
Purity Assay [7]: 100.4% and 98.5%
Mean Purity Assay [8]: 99.1%
Purity Assay [8]: 99.4% and 98.8%
Mean Purity Assay (in CAPTEX, Three Weeks 50° C.): 106.5%
Purity Assay (in CAPTEX, Three Weeks 50° C.): 107.1% and 105.9%
Mean Purity Assay (in CAPTEX, Three Weeks 60° C.): 103.0%
Purity Assay (in CAPTEX, Three Weeks 60° C.): 100.7% and 105.3%
Mean Purity Assay (in CAPTEX, Time Zero): 105.4%
Purity Assay (in CAPTEX, Time Zero): 105.6% and 105.3% and 104.1% and 106.4%
Mean Purity Assay [9]: 102.8%
Purity Assay [9]: 104.8% and 100.8%
Mean Purity Assay [10]: 96.4%
Purity Assay [10]: 98.5% and 94.3%
Mean Purity Assay (in CAPTEX, Two Weeks 50° C.): 97.9%
Purity Assay (in CAPTEX, Two Weeks 50° C.): 96.5% and 99.3%
Mean Purity Assay (in CAPTEX, Two Weeks 60° C.): 102.4%
Purity Assay (in CAPTEX, Two Weeks 60° C.): 105.6% and 99.1%
Mean Purity Assay [11]: 99.1%
Purity Assay [11]: 99.4% and 98.7%
Mean Purity Assay [12]: 100.9%
Purity Assay [12]: 102.6% and 99.2%
Mean Purity Assay (in SAFFLOWER, One Week 50° C.): 100.7%
Purity Assay (in SAFFLOWER, One Week 50° C.): 100.9% and 100.4%
Mean Purity Assay (in SAFFLOWER, One Week 60° C.): 100.8%
Purity Assay (in SAFFLOWER, One Week 60° C.): 99.5% and 102.0%
Mean Purity Assay [13]: 105.7%
Purity Assay [13]: 108.1% and 103.3%
Mean Purity Assay [14]: 104.6%
Purity Assay [14]: 102.7% and 106.5%
Mean Purity Assay [15]: 98.7%
Purity Assay [15]: 101.0% and 96.4%
Mean Purity Assay [16]: 105.1%
Purity Assay [16]: 103.7% and 106.5%
Mean Purity Assay (in SAFFLOWER, Time Zero): 103.8%
Purity Assay (in SAFFLOWER, Time Zero): 102.1% and 104.8% and 104.7% and 103.5%
Mean Purity Assay [17]: 101.6%
Purity Assay [17]: 105.1% and 98.1%
Mean Purity Assay [18]: 100.2%
Purity Assay [18]: 98.1% and 102.3%
Mean Purity Assay (in SAFFLOWER, Two Weeks 50° C.): 96.7%
Purity Assay (in SAFFLOWER, Two Weeks 50° C.): 98.3% and 95.1%
Mean Purity Assay (in SAFFLOWER, Two Weeks 60° C.): 98.1%
Purity Assay (in SAFFLOWER, Two Weeks 60° C.): 99.2% and 96.9%
Degradation of oleoyl-estrone (in canola oil, safflower oil or Captex, three weeks at 25° C./60% RH, 40° C./75% RH, 50° C. and 60° C.): no measurable degradation
Degradation of oleoyl-estrone [19]: measurable degradation
Levels of estrone [19]: increased significantly
